From PubChem BioAssay AID1645848
Values after ≈ are worked out from the molar mass of the structure shown.

settings: buffer; pH 7.4; 6.0 h; 150.0 µM

| Compound | solubility kinetic [µg/mL] |
| --- | --- |
| Cc1noc(C)c1-c1cc2c(cc(C)n2C)c(-c2cnn(C)c2)n1 | 15.2 (≈ 47.2 µM) |
| COc1ccccc1C(=O)NC1CCCc2c1[nH]c1c(Cl)cccc21 (stereo unspecified) | < 1 |
| NC(=O)C1CCN(c2nc(-c3cccc4ccccc34)cs2)CC1 | 38.3 (≈ 114 µM) |
| N#Cc1ccccc1-c1csc(N2CCC(C(N)=O)CC2)n1 | 36.9 (≈ 118 µM) |
| CCOc1cc(F)c(CCNC(=O)c2cc3sccc3n2Cc2ccccc2)cc1OCC | < 1 |
| COc1cccc(NS(=O)(=O)c2ccc(C)cc2)c1C(=O)Nc1nc(-c2ccccc2)cs1 | < 1 |
| C=C1C(=O)O[C@@H]2[C@H]3O[C@]3(C)CC/C=C(\C)CC[C@@H]12 | 7.28 (≈ 29.3 µM) |
| CCOc1ccc(CN2C(=O)c3ccccc3Sc3ccc(C(=O)NC4CCC(C)CC4)cc32)cc1 (stereo unspecified) | 6.78 (≈ 13.5 µM) |
| CC(C)NC(=O)c1nc(-c2ccc(Cl)nc2)c2ccccn12 | 17.2 (≈ 54.6 µM) |
| O=C(Nc1ccc(Nc2ccncc2)cc1)c1ccc(Nc2ccnc3ccc([N+](=O)[O-])cc23)cc1[N+](=O)[O-] | < 1 |
| COc1cccc(CNc2ccc(S(=O)(=O)Nc3cccnc3)cc2)c1O | 3.93 (≈ 10.2 µM) |
| CC(C)n1cc(-c2ccc3c(c2)N(C)CC3)c2c(NS(=O)(=O)c3ccn(C)n3)ccnc21 | 36.7 (≈ 81.5 µM) |
| Cc1cc(C)nc(NC(=S)N2CCN(c3ccc(C(F)(F)F)cc3[N+](=O)[O-])CC2)c1 | 6.89 (≈ 15.7 µM) |
| O=C(CCS(=O)(=O)c1nc(-c2cccs2)cc(C(F)(F)F)n1)Nc1ccc(OC(F)(F)F)cc1 | 11.5 (≈ 21.8 µM) |
| Nc1nc(Nc2ccc(S(N)(=O)=O)cc2)n(C(=S)Nc2c(F)cccc2F)n1 | < 1 |
| CC(C)(C)c1ccc(C(=O)Nc2cn3cc(-n4ccnc4)ccc3n2)cc1 | < 1 |
| COc1ccc(NC(=O)C2=C(C)NC(Nc3nc4ccccc4o3)=NC2c2ccccc2Br)cc1 (stereo unspecified) | < 1 |
| Clc1ccccc1-c1nc(NCc2ccc(-c3cccnc3)cc2)c2ccccc2n1 | < 1 |
| COCCNC(=O)c1ccc(-c2ccc(N3CCCCC3)nc2)cc1 | 4.58 (≈ 13.5 µM) |
| O=c1cc(-c2ccccc2)oc2cc(O)cc(O)c12 | < 1 |
| CC(/C=C/C(=O)NO)=C\[C@@H](C)C(=O)c1ccc(N(C)C)cc1 | > 45 |
| CCOc1ccc(CCNC(=O)c2cc3ncccc3n2Cc2cccc(C)c2)cc1OCC | 36.5 (≈ 79.7 µM) |
| O=C(Nc1ccc2c(N3CCCCC3)ncnc2c1)c1cc(F)cc(F)c1 | < 1 |
| Cc1cc(C)nc(N2CCCC(C(=O)NCCc3ccc(F)cc3)C2)n1 (stereo unspecified) | 2.77 (≈ 7.77 µM) |
| COc1cccc(CNc2ccc(S(=O)(=O)Nc3ccc(N4CCNCC4)nc3)cc2)c1O | 55.9 (≈ 119 µM) |
| C/C=C1/CN2CC[C@@]34c5ccccc5N(C)[C@@H]3[C@@H]2C[C@@H]1[C@H]4C(=O)OC | > 33 |

| Compound | solubility kinetic [µg/mL] |
| --- | --- |
| C=Cc1ccc(Cn2c(C(=O)O)c(CNCc3ccccc3)c3ccc(OC)cc32)cc1 | 5.42 (≈ 12.7 µM) |
| CCN1CCN(CC(=O)Nc2ccc(-c3cccc4c(=O)cc(N5CCOCC5)oc34)c3sc4ccccc4c23)CC1 | 63.6 (≈ 109 µM) |
| O=C1CCCC2=C1C(c1[nH]ncc1Cl)N=C(Nc1nc3ccc(Cl)cc3o1)N2 (stereo unspecified) | 1 (≈ 2.4 µM) |
| N#Cc1nc(-c2cccc3ccccc23)oc1NC1COC1 | < 1 |
| Cc1ccccc1C(=O)Nc1nc2c(s1)CC(C(C)(C)C)CC2 (stereo unspecified) | < 1 |
| CCCCOc1ccc(C2c3c(oc4ccc(C)cc4c3=O)C(=O)N2CCCN(C)C)cc1OCC (stereo unspecified) | 58.5 (≈ 119 µM) |
| CCCN(C(=O)c1sc2nc3n(c(=O)c2c1C)CCCC3)c1ccccc1C | 1.83 (≈ 4.64 µM) |
| Cc1cnccc1-c1nc(Nc2ccc(F)c(F)c2)c2ccccc2n1 | 1.43 (≈ 4.09 µM) |
| COc1ccccc1N1CCN(CCN(C(=O)c2ccc(I)cc2)c2ccccn2)CC1 | 53.8 (≈ 99.1 µM) |
| COc1ccc2oc(NC3=NC(c4[nH]ncc4Cl)C4=C(CCCC4=O)N3)nc2c1 (stereo unspecified) | 11.2 (≈ 27.2 µM) |
| CC(C)(C)c1ccc(SC2=NS(=O)(=O)c3ccccc32)cc1 | < 1 |
| CC(C)(C)NS(=O)(=O)c1ccc(-c2ccc3[nH]nc(N)c3c2)cc1 | > 51 |
| COc1ncccc1-c1cc2[nH]ccc2c(C(=O)NCc2c(C)cc(C)[nH]c2=O)n1 | 5.75 (≈ 14.3 µM) |
| Cc1ccc(NC2=C(c3ccc(C(F)(F)F)cc3)C(=O)c3ccccc32)cc1C | < 1 |
| CN(Cc1cccs1)c1ncnc2ccc(-c3ccc4c(c3)OCO4)cc12 | < 1 |
| O=C(Nc1ncc(Cc2ccc(C(F)(F)F)cc2)s1)c1ccco1 | < 1 |
| Cc1cc(CNC(=O)c2ccc3c(c2)n(CC2CC2)c(=O)n3C2CCCCC2)on1 | 15.6 (≈ 38.3 µM) |
| O=S(=O)(c1ccccc1)c1nnn2c1nc(NCc1cccs1)c1sccc12 | < 1 |
| C[S+](=O)([O-])c1ccc(-c2nc(C(=O)N3CCOCC3)n3ccncc23)cc1 | > 57 |
| O=C(NCCCCc1ccccc1)C1CCN(c2nc(-c3ccc(Br)cc3)cs2)CC1 | 7.06 (≈ 14.2 µM) |
| COc1ccc(Nc2cc(C)nc(-n3nc(C)cc3C)n2)cc1Cl | 3.58 (≈ 10.4 µM) |
| Nc1ncnc2c1c(-c1ccc(Oc3ccccc3)cc1)cn2C1CCCC1 | < 1 |
| O=C(Nc1ccc(N2CCN(C(=O)c3ccccc3F)CC2)cc1)c1cncc(Br)c1 | 3.75 (≈ 7.77 µM) |
| Cc1ccnc(NC(=S)N2CCN(c3cccc(Cl)c3Cl)CC2)c1 | 2.51 (≈ 6.58 µM) |
| CN(C)c1cccc(-c2cnc(N3CCC(c4ncc[nH]4)CC3)s2)c1 | 32.7 (≈ 92.5 µM) |
| O=C1NC(=S)NC(=O)C1=Cc1cccn1-c1ccc(O)cc1 | 37 (≈ 118 µM) |

| Compound | solubility kinetic [µg/mL] |
| --- | --- |
| Oc1ccc(NCc2ccccc2OCc2ccccc2Cl)cc1 | 3.28 (≈ 9.65 µM) |
| COc1cccc(CNc2ccc(S(=O)(=O)Nc3cnc4ccccc4c3)cc2)c1O | < 1 |
| COc1ccc(NC(=O)c2cccnc2)cc1S(=O)(=O)Nc1ccc(Br)cc1 | 33.5 (≈ 72.5 µM) |
| COc1cccc(CNc2ccc(S(=O)(=O)Nc3nccs3)cc2)c1 | 27.2 (≈ 72.5 µM) |
| Cc1ccc(S(=O)(=O)Nc2ccc(C)cc2C(=O)Nc2nc(-c3ccccc3)cs2)cc1 | < 1 |
| c1cc(-c2cc(-c3ccncc3)c3cncn3c2)c2cc[nH]c2c1 | < 1 |
| O=C(Nc1nc(-c2ccccc2)cs1)c1ccncc1NS(=O)(=O)c1ccc2ccccc2c1 | < 1 |
| NC(=O)C1CCN(c2nc(-c3ccccc3)cs2)CC1 | > 42 |
| CCOc1ccccc1N(CC(=O)N1CCOCC1)S(=O)(=O)c1ccc(SC)cc1 | > 67 |
| c1ccc2c(Nc3nccs3)nc(-c3ccncc3)nc2c1 | < 1 |
| Cc1nn(-c2ccccc2)c2nc(C3CC3)cc(C(=O)Nc3ccc(F)cc3)c12 | < 1 |
| CCc1cccc(NC(=O)c2c(C)oc3nc(C)nc(N4CCCC4)c23)c1 | 14.8 (≈ 40.6 µM) |
| Cc1ccc(CCNC(=O)C2CCCN(C(=O)c3cc4sccc4n3C)C2)cc1 (stereo unspecified) | 3.09 (≈ 7.55 µM) |
| Nc1ccc(CNc2ccc([S+](=O)([O-])Nc3nccs3)cc2)c(O)c1 | 45.7 (≈ 121 µM) |
| COc1cc(-c2nc(Cn3nnc(C(=O)Nc4cc(C)cc(C)c4)c3C)c(C)o2)cc(OC)c1OC | < 1 |
| COc1ccc(OC)c(CNc2ncnc3onc(C)c23)c1 | > 44 |
| Cc1c(-c2nsc(NC(=O)c3cccc(Cl)c3)n2)nnn1-c1ccccc1C(F)(F)F | < 1 |
| COc1ccc(-n2nc3c(N4CCCC(C(=O)NCCc5ccc(C)cc5)C4)nnc(C)c3c2C)cc1 (stereo unspecified) | 4.04 (≈ 8.1 µM) |
| CC(C)NC(=O)c1nc(-c2ccc(Cl)nc2)c2cnccn12 | 16.5 (≈ 52.2 µM) |
| CCCCCNc1oc(-c2cccc3ccccc23)nc1C#N | < 1 |
| O=C(Nc1cccnc1)c1cccs1 | > 30 |
| Cc1ccc2nc(-c3ccccn3)c(Nc3ccccc3C)n2c1 | < 1 |
| COCCNC(=O)[C@H]1C[C@H](Oc2ccccc2)CN1Cc1ccc2[nH]ccc2c1 | 17.1 (≈ 43.5 µM) |
| CN(C)C(=O)C1CCN(c2nc(-c3ccc(Br)cc3)cs2)CC1 | 1.8 (≈ 4.56 µM) |
| COc1ccc(CN2CCNc3cc(Nc4ccccc4)ncc3C2)cc1O | > 83 |
| Cc1cc(C)nc(NC(=S)N2CCN(c3cc(C(F)(F)F)nc4ccc(C(F)(F)F)cc34)CC2)c1 | 12 (≈ 23.4 µM) |

| Compound | solubility kinetic [µg/mL] |
| --- | --- |
| NCC(=O)Nc1ccc(Cl)cc1C(=O)c1ccc[nH]1 | > 41 |
| CC(Nc1nc(N2CCN(S(C)(=O)=O)CC2)nc2ccccc12)c1ccccc1 (stereo unspecified) | 11 (≈ 26.8 µM) |
| CC1CCc2ccc(F)cc2N1S(=O)(=O)c1cccs1 (stereo unspecified) | 3.12 (≈ 10 µM) |
| O=C(O)c1cccc(-c2cnc3ccccc3c2)c1 | > 37 |
| Cc1ccccc1C(=O)N1CCc2cc(-c3nc(NC(=O)Cc4ccccc4)sc3C)ccc21 | < 1 |
| Cc1ccc(S(=O)(=O)Nc2cc(F)c(F)cc2C(=O)Nc2nc(-c3ccccc3)cs2)cc1 | < 1 |
| O=C1Nc2ccccc2/C1=C/c1ccc[nH]1 | 1.91 (≈ 9.09 µM) |
| CC(=O)NCCNC[C@@H]1C=C(C)[C@H](Cc2nnc(-c3ccccc3)o2)C[C@H]1C(C)C | > 61 |
| COc1ccc(OC)c(N2C(=O)C(Cl)=C(N3CCCCC3)C2=O)c1 | < 1 |
| O=C(CCCN1CCC(O)(c2ccc(Cl)cc2)CC1)c1ccc(F)cc1 | 6.42 (≈ 17.1 µM) |
| O=C(Nc1nc(-c2ccccn2)cs1)c1cccc(S(=O)(=O)N2CCOCC2)c1 | 24.3 (≈ 56.4 µM) |
| Fc1cc(Nc2nc(-c3ccncc3)nc3ccccc23)ccc1-c1cccnc1 | < 1 |
| O=C(NCCN1CCOCC1)C1CC(=O)N(c2n[nH]c3cc(Br)ccc23)C1 (stereo unspecified) | 32.5 (≈ 74.5 µM) |
| O=C(Nc1nc(-c2ccccc2)cs1)c1ccncc1NS(=O)(=O)c1cccnc1 | > 65 |
| CC(C)COc1ccc(-c2csc(N3CCC(C(N)=O)CC3)n2)cc1 | 2.68 (≈ 7.45 µM) |
| O=C(Nc1ccc2c(N3CCOCC3)ncnc2c1)c1cccc(Br)c1 | 9.48 (≈ 22.9 µM) |
| Cc1cccc(-n2cnc3cc(C(=O)N4CCCC(C)C4)ccc32)c1 (stereo unspecified) | 26.4 (≈ 79.3 µM) |
| Cc1ccccc1CN1C2=NCCN2C(=O)C2=C1CCN(Cc1ccccc1)C2 | 26.7 (≈ 69 µM) |
| O=C(C1CC(=O)N(c2n[nH]c3ccccc23)C1)N1CCC(c2noc3cc(F)ccc23)CC1 (stereo unspecified) | 2.36 (≈ 5.28 µM) |
| Cc1cnc(-c2ccccc2C2COC2)nc1NCC1CCN(c2cccnc2)CC1 | > 61 |
| CC(C)(O)CCc1ccc(OCc2cc(-c3cccc(OC(F)F)c3)c3ncccc3c2)cc1 | < 1 |
| CCCN1CNc2c(c(=O)[nH]c(=S)n2Cc2ccc(OC)c(OC)c2)C1 | > 56 |
| COc1ccc(C2=Nn3c(nnc3-c3ccncc3)SC2)cc1 | 9.06 (≈ 28 µM) |
